Laboratory results: patent US20230047825A1, “ANTIMICROBIAL PEPTIDES” (priority 2019, published 2023)
Converted amounts (≈) assume the structure as drawn. “And” between values parts separate entries of the source, which are not always exact repeats. Equal entries are not always repeated. Where two headings read alike, the source gives them in different places. Where a SMILES comes first, the peptide text is derived from it.

Assays:
[1] = system: Staphylococcus aureus VRS-2 (VanA, VRSA); test: microbe, parasite or virus in culture; settings: VRS-2 (VanA)
Experimental: The S. aureus strains ATCC 29213, ATCC 19636, ATCC 33591 (MRSA), BAA-1556 (MRSA USA 300) were obtained from the American Type Culture Collection (ATCC). […] The species identity was confirmed with 16S rRNA analysis.
Two broth mediums were used, Mueller Hinton Broth and RPMI 1640+5% fetal bovine serum. Test substances were evaluated in 11-point titrations and performed in duplicate.
The direct colony suspension method was used to prepare inoculated broth. Isolated colonies were taken from an 18-24 h culture plate. Optical density measurements (OD620nm) were used to estimate the bacterial density. […] The stock solutions were diluted by 2-fold serial titrations with their respective vehicles for a total of 11 concentrations.
A 4 μL aliquot of each dilution was added to 196 μL of broth medium seeded with the organism in wells of a sterilized 96 well polypropylene plate (Nunc™ 249949) using aluminum foil as cover. The final bacterial count was 2 to 8×10^5 CFU/mL. […] The final test article concentration range was 32 to 0.0313 μg/mL.
Each test substance dilution was evaluated in duplicate on one test occasion. […] Plates were incubated at 35-37° C. for 18 h. The test plates were visually examined and each well was visually scored for growth or complete inhibition of growth. The MIC value was recorded.

[2] = system: EMRSA-15 lung infection
Experimental: Murine EMRSA-15 lung infection model. In one embodiment this was carried out using the method described previously,^58 an overnight culture of EMRSA-15 was prepared in tryptic soy broth (TSB). EMRSA-15 was cultured in TSB overnight at 37° C., adjusted to a starting OD600 of 0.025, and grown for additional 4 h for agar beads preparation. EMRSA-15 was embedded into agar beads by mixing the overnight culture with molten tryptic soy agar, which was then spun into warmed mineral oil. The preparation was cooled and centrifuged at 2,700 g, the remaining oil was eliminated and the beads were washed in sterile PBS. The colony forming unit (cfu) content of the beads slurry was subsequently quantified on TSA plates and the beads slurry then diluted to either 2×10^7 cfu/ml in sterile PBS to deliver a final dose of either 1×10^6 cfu/mouse. Animal work was performed in accordance with the Animals (Scientific Procedures) Act of 1986 (United Kingdom). On day 0, male C57B16J mice (8-10 weeks, Charles River) were anesthetized under Isoflurane and 50 μl inoculum of EMRSA-15 embedded in agar beads (10^6 cfu/mouse) was instilled directly into the respiratory tract via oropharyngeal dosing (o.a) to reduce severity associated with surgery. Sham control mice were inoculated with sterile PBS agar beads. […] Body weight was measured daily, and animals monitored at regular intervals for signs of pain and distress. 48 hours post pulmonary infection, animals were terminally euthanized using 25% Urethane via intra-peritoneal injection. Lungs, were removed and homogenized in 2 ml PBS. Samples were serially diluted 1:10 in PBS and plated for CFU count. Lung homogenates were then centrifuged at 14000 rpm for 30 min at 4° C. and the supernatants were stored at −80° C. for future analysis. For bronchoalveolar lavage fluid collection and analysis (total and differential cell count), a 22-gauge catheter was inserted into the trachea and BAL was recovered by instillation of 0.5 ml of sterile PBS three times and total cells counts were performed by adding Turks stain in a 1:1 ratio. Total cells were then enumerated on an improved Naubauer haemocytometer. BAL fluid was then centrifuged, and supernatants were stored at −20° C. Cytospin slides were prepared and 100 μl of BAL was added into a cytospin funnel and centrifuged at 1000 rpm for 1 minute on a medium acceleration. The slides were then stained using Diff-Quick (Dade, Biomap, Italy).
More suitably Murine EMRSA-15 lung infection model was carried out using the method described previously,^58 an overnight culture of EMRSA-15 was prepared in tryptic soy broth (TSB). EMRSA-15 was cultured in TSB overnight at 37° C., adjusted to a starting OD600 of 0.025, and grown for additional 4 h for agar beads preparation. EMRSA-15 was embedded into agar beads by mixing the overnight culture with molten tryptic soy agar, which was then spun into warmed mineral oil. The preparation was cooled and centrifuged at 2,700 g, the remaining oil was eliminated, and the beads were washed in sterile PBS. The colony forming unit (CFU) content of the beads slurry was subsequently quantified on TSA plates and the beads slurry then diluted to either 2×10^7 CFU/ml in sterile PBS to deliver a final dose of either 1×10^6 CFU/mouse. Animal work was performed in accordance with the Animals (Scientific Procedures) Act of 1986 (United Kingdom). On day 0, male C57B16J mice (8-10 weeks, Charles River) were anesthetized under Isoflurane and 50 μl inoculum of EMRSA-15 embedded in agar beads (10^6 CFU/mouse) was instilled directly into the respiratory tract via oropharyngeal dosing (o.a.) to reduce severity associated with surgery. Sham control mice were inoculated with sterile PBS agar beads.

CC(C)C[C@@H](NC(=O)[C@@H](Cc1ccc(O)cc1)NC(=O)[C@@H](Cc1c[nH]cn1)NC(=O)[C@H](NC(=O)[C@@H](CC(C)C)NC(=O)[C@@H](C)NC(=O)[C@@H](C)NC(=O)[C@@H](CCCNC(=N)N)NC(=O)CNC(=O)[C@H](NC(=O)[C@@H](Cc1c[nH]cn1)NC(=O)[C@@H](CCCNC(=N)N)NC(=O)CNC(=O)[C@H](NC(=O)[C@@H](Cc1c[nH]cn1)NC(=O)[C@@H](C)NC(=O)[C@@H](C)NC(=O)[C@@H](CCCNC(=N)N)NC(=O)[C@@H](CCCNC(=N)N)NC(=O)[C@@H](Cc1ccccc1)NC(=O)[C@@H](Cc1ccccc1)NC(=O)[C@@H](CO)NC(=O)CNC(=O)[C@@H](Cc1c[nH]c2ccccc12)NC(=O)CN)C(C)C)C(C)C)[C@H](C)O)C(N)=O [D-pleurocidin-KR] (HELM PEPTIDE1{G.[dW].G.[dS].[dF].[dF].[dR].[dR].[dA].[dA].[dH].[dV].G.[dR].[dH].[dV].G.[dR].[dA].[dA].[dL].[dT].[dH].[dY].[dL].[am]}$$$$V2.0; N-terminus assumed)
MIC [1]: 2 µg/mL (≈ 0.709 µM)
reduction in lung CFU ([2]; cumulative dose 1.5 mg/kg/48h i.v.): 0.9 log10
reduction in lung CFU ([2]; cumulative dose 15 mg/kg/48h i.v. (three doses at 4, 24, 30 h post infection), 15 mg/kg): 1.14 log10 and 1.1 log10
reduction in lung CFU ([2]; cumulative dose 15 mg/kg/48h i.v. (three doses at 4, 24, 30 h post infection), listed as AMP2b, 15 mg/kg): 1.14 log10
weight loss over the 48-hour infection period ([2]; cumulative dose of 15 or 1.5 mg/kg/48h i.v.): mitigates this weight loss
IL-6 and neutrophil recruitment in BAL ([2]; following therapy, i.v.): reduced
macrophage numbers, TNFα and MCP-1 levels in BAL ([2]; following therapy, i.v.): No effects
tolerability in murine lung infection model ([2]; i.v., cumulative dose of 15 or 1.5 mg/kg): well tolerated
weight loss over the 48-hour infection period ([2]; lowest cumulative dose of 0.15 mg/kg i.v.): no observable effect
IL-6 and neutrophil recruitment in BAL ([2]; lowest dose of D-pleurocidin-KR (0.15 mg/kg cumulative)): significant reduction
effective cumulative dose over 48 hrs ([2]; murine EMRSA-15 lung infection): 1.5 mg/kg
mouse KC levels in BAL ([2]; vancomycin 600 mg/kg or the two higher D-pleurocidin-KR doses (15, 1.5 mg/kg cumulative)): KC levels to fall to that of the uninfected group
